Source: patent EP0041644B1 (priority 1980, dated 1981)

Test system: L-1210 Leukemia
Test: L-1210 Leukemia (Table VIII)
Settings: for lethality: 200 mg/kg, single ip injection; for maximum T/C / optimal doses: single ip injections; for optimal doses: dose of maximum T/C
Experimental: The sodium and ammonium salts of the present invention were tested against transplantable mouse tumors as indicated below. The methodology used generally followed the protocols of the National Cancer Institute (Cancer Chemotherapy Rep., Part 3, 3, 1-103 (1972). The essential experimental details are given at the bottom of the following tables.

SMILES	Average Weight Change (25 mg/kg/inj ip, d.1) [g]	Effect MST % T/C (25 mg/kg/inj ip, d.1) [% T/C]	MST Days (25 mg/kg/inj ip, d.1) [days]	Survivors Day 5(30) (25 mg/kg/inj ip, d.1)	Effect MST % T/C (50 mg/kg/inj ip, d.1) [% T/C]	MST Days (50 mg/kg/inj ip, d.1) [days]	Survivors Day 5(30) (50 mg/kg/inj ip, d.1)	Effect MST % T/C (100 mg/kg/inj ip, d.1) [% T/C]	MST Days (100 mg/kg/inj ip, d.1) [days]	Survivors Day 5(30) (100 mg/kg/inj ip, d.1)	lethality	Average Weight Change,g (200 mg/kg/inj ip, d.1)	Effect MST % T/C (200 mg/kg/inj ip, d.1)	MST Days (200 mg/kg/inj ip, d.1)	Survivors Day 5(30) (200 mg/kg/inj ip, d.1)	maximum T/C [%]	optimal doses [mg/kg]	other results
O=C1[O][Pt]2([NH]C3CCCCC3[NH]2)[O]C(=O)C1O (centres unmarked) [2-hydroxymalonato(1,2-diaminocyclohexane)platinum (II)]	-0.3	142	8.5	6/6	150	9.0	6/6	183	11.0	6/6	lethal	TOX	TOX	TOX	0/6	183	100	Average Weight Change,g (50 mg/kg/inj ip, d.1): +0.1 g; Average Weight Change (100 mg/kg/inj ip, d.1): -1.5 g
O=C1[O][Pt]2([NH]C3CCCCC3[NH]2)[O]C(=O)C1[O-].[Na+] (centres unmarked) [Example 6, 2-Hydroxymalonato(1,2-diaminocyclohexane)platinum (II), sodium salt]	-0.8	183	11.0	6/6	208	12.5	6/6	217	13.0	6/6	lethal	TOX	TOX	TOX	1/6	217	100	Average Weight Change (6 mg/kg/inj ip, qd 1→9): -0.9 g; Effect MST % T/C (6 mg/kg/inj ip, qd 1→9): 192 % T/C; MST Days (6 mg/kg/inj ip, qd 1→9): 11.5 days; Survivors Day 5(30) (6 mg/kg/inj ip, qd 1→9): 6/6; Average Weight Change (12 mg/kg/inj ip, qd 1→9): -2.3 g; Effect MST % T/C (12 mg/kg/inj ip, qd 1→9): 233 % T/C; MST Days (12 mg/kg/inj ip, qd 1→9): 14.0 days; Survivors Day 5(30) (12 mg/kg/inj ip, qd 1→9): 6/6; Average Weight Change (24 mg/kg/inj ip, qd 1→9): -2.4 g; Effect MST % T/C (24 mg/kg/inj ip, qd 1→9): 342 % T/C; MST Days (24 mg/kg/inj ip, qd 1→9): 20.5 days; Survivors Day 5(30) (24 mg/kg/inj ip, qd 1→9): 4/6; Average Weight Change (48 mg/kg/inj ip, qd 1→9): -3.3 g; Effect MST % T/C (48 mg/kg/inj ip, qd 1→9): 100 % T/C; MST Days (48 mg/kg/inj ip, qd 1→9): 6.0 days; Survivors Day 5(30) (48 mg/kg/inj ip, qd 1→9): 5/6; Average Weight Change (50 mg/kg/inj ip, d.1): -1.2 g; Average Weight Change,g (100 mg/kg/inj ip, d.1): +2.6 g; T/C (qd 1→9, 12 mg/kg/inj): 233%; T/C (qd 1→9, 24 mg/kg/injection): 342%
